# Data as given in ChEMBL document CHEMBL5055675, “Apoptosis Inducing 1,3,4-Oxadiazole Conjugates of Capsaicin: Their In Vitro Antiproliferative and In Silico Studies” (ACS Med Chem Lett, 2021).
# The source made the active and inactive calls. The calls are words filed in the database; no cut-off is given here.
# Tests used:
# [1] = system: CAKI-1; test: Antiproliferative activity against human CAKI-1 cells assessed as cell growth at 10 uM incubated for 48 hrs by sulforhodamine B assay relative to control; format: functional; conditions: read-out: Activity
# [2] = system: NCI-H460; test: Inhibition of colony formation in human NCI-H460 cells assessed as reduction in colony formation incubated for 15 days and subsequent media replacement with compound for every 72 hrs by crystal violet staining based assay; format: functional, cell-based; conditions: dose 5-20 µM, time 15.0 day
# [3] = system: NCI-H460; test: Induction of ROS production in human NCI-H460 cells incubated for 24 hrs by CM-H2DCFDA probe based flow cytometry analysis; format: functional, cell-based; conditions: dose 5-20 µM
# [4] = system: NCI-H460; test: Cell cycle arrest in human NCI-H460 cells assessed as accumulation of cells in G1 phase at 5 uM measured after 72 hrs by propidium iodide/RNase staining based flow cytometry analysis (Rvb= 62.9%); format: functional
# [5] = system: NCI-H460; test: Cell cycle arrest in human NCI-H460 cells assessed as accumulation of cells in G2/M phase at 5 uM measured after 72 hrs by propidium iodide/RNase staining based flow cytometry analysis (Rvb= 10.22%); format: functional
# [6] = system: NCI-H460; test: Cell cycle arrest in human NCI-H460 cells assessed as accumulation of cells in G2/M phase at 10 uM measured after 72 hrs by propidium iodide/RNase staining based flow cytometry analysis (Rvb= 10.22%); format: functional
# [7] = system: NCI-H460; test: Induction of apoptosis in human NCI-H460 cells assessed as early apoptotic cells at 5 uM measured after 72 hrs by Annexin V-FITC and propidium iodide staining based flow cytometry analysis (Rvb= 6.61%); format: functional
# [8] = system: NCI-H460; test: Induction of apoptosis in human NCI-H460 cells assessed as late apoptotic cells at 10 uM measured after 72 hrs by Annexin V-FITC and propidium iodide staining based flow cytometry analysis (Rvb= 6.93%); format: functional
# [9] = system: NCI-H460; test: Induction of apoptosis in human NCI-H460 cells assessed as late apoptotic cells at 20 uM measured after 72 hrs by Annexin V-FITC and propidium iodide staining based flow cytometry analysis (Rvb= 6.93%); format: functional
# [10] = system: NCI-H460; test: Induction of apoptosis in human NCI-H460 cells assessed as decrease in pro-PARP expression level at 1 to 20 uM measured after 72 hrs by western blot analysis; format: functional, cell-based; conditions: dose 1-20 µM
# [11] = system: NCI-H460; test: Antimigratory activity against human NCI-H460 cells assessed as reduction in VEGF expression level measured after 72 hrs by western blot analysis; format: functional, cell-based; conditions: dose 1-20 µM
# [12] = system: NCI-H460; test: Antimigratory activity against human NCI-H460 cells assessed as reduction in vimentin expression level at 1 to 20 uM measured after 72 hrs by western blot analysis; format: functional, cell-based; conditions: dose 1-20 µM
# [13] = system: NCI-H460; test: Inhibition of ERK phosphorylation in human NCI-H460 cells at 20 uM measured after 72 hrs by western blot analysis; format: cell-based
# [14] = system: NCI-H460; test: Effect on total ERK expression in human NCI-H460 cells at 1 to 20 uM measured after 72 hrs by western blot analysis; format: functional, cell-based; conditions: dose 1-20 µM
# [15] = system: NCI-H460; test: Reduction in VEGFR2 mRNA expression in human NCI-H460 cells at 10 to 20 uM by real-time qPCR analysis; format: functional, cell-based; conditions: dose 10-20 µM
compound,measurement,setting,value
COc1cc(CNC(=O)CCCC/C=C/C(C)C)ccc1OCc1nnc(Nc2ccc([N+](=O)[O-])cc2)o1,growth at 10 µM,[1],33.6%
same,inhibition,[2],Dose-dependent effect
same,Activity,[3],Dose-dependent effect
same,Activity,[4],61.8%
same,Activity,[5],10.03%
same,Activity,[6],11.81%
same,Activity,[7],5.45%
same,Activity,[8],9.27%
same,Activity,[9],17.44%
same,Activity,[10],Active
same,Activity,[11],Dose-dependent effect
same,Activity,[12],inactive
same,inhibition,[13],Active
same,Activity,[14],inactive
same,inhibition,[15],Active
